Measured values: ChEMBL document CHEMBL3217662 (Medchemcomm, 2011)

Tests used:
[1] = system: Human immunodeficiency virus 1; experiment: Antiviral activity against wild type HIV1 3B infected in human MT2 cells assessed as virus-induced cytopathic effect after 5 days by XTT assay; assay type: functional, organism-based; conditions: Human immunodeficiency virus 1, 3B, MT2, 120 h
[2] = Cytotoxicity against human MT2 cells assessed as reduction in cell viability after 5 days by XTT assay; assay type: cell-based
[3] = Cytotoxicity against human HepG2 cells assessed as reduction in cell viability after 5 days by XTT assay; assay type: cell-based
[4] = system: Human immunodeficiency virus 1; experiment: Fold resistance, ratio of EC50 for HIV1 3B harboring protease M46I/V82T/L90M mutant infected in human MT2 cells to EC50 for wild type HIV1 3B infected in human MT2 cells; assay type: functional
Protease = Protease (Human immunodeficiency virus 1, UniProt Q9YQ12); experiment: Inhibition of HIV1 protease using fluorogenic hexapeptide substrate (2-aminobenzoyl)Thr-Ile-Nle-(p-nitro)Phe-Gln-Arg by fluorimeter
Chain of Protease (Q9YQ12 whole entry): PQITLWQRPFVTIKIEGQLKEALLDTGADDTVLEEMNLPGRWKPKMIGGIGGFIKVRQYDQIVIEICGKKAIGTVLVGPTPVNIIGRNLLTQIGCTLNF

[5] = system: Human immunodeficiency virus 1; experiment: Fold resistance, ratio of EC50 for HIV1 3B harboring protease M46I/I50V mutant infected in human MT2 cells to EC50 for wild type HIV1 3B infected in human MT2 cells; assay type: functional
[6] = system: Human immunodeficiency virus 1; experiment: Fold resistance, ratio of EC50 for HIV1 3B harboring protease G48V/I54V/V82S mutant infected in human MT2 cells to EC50 for wild type HIV1 3B infected in human MT2 cells; assay type: functional
[7] = system: Human immunodeficiency virus 1; experiment: Fold resistance, ratio of EC50 for HIV1 3B harboring protease G48V/V82A/I84V/L90M mutant infected in human MT2 cells to EC50 for wild type HIV1 3B infected in human MT2 cells; assay type: functional
[8] = system: Human immunodeficiency virus 1; experiment: Fold resistance, ratio of EC50 for HIV1 3B harboring protease D30N/54V/L90M mutant infected in human MT2 cells to EC50 for wild type HIV1 3B infected in human MT2 cells; assay type: functional
[9] = system: Human immunodeficiency virus 1; experiment: Fold resistance, ratio of EC50 for HIV1 3B harboring protease I84V/L90M mutant infected in human MT2 cells to EC50 for wild type HIV1 3B infected in human MT2 cells; assay type: functional
[10] = system: Human immunodeficiency virus 1; experiment: Antiviral activity against wild type HIV1 3B infected in human MT2 cells assessed as virus-induced cytopathic effect after 5 days by XTT assay relative to in the presence of 50% pooled human serum; assay type: functional
[11] = Oral bioavailability in Beagle dog at 10 mg/kg; assay type: ADME, organism-based, Canis lupus familiaris; conditions: in vivo
[12] = Clearance in Beagle dog at 2 mg/kg, iv over 30 mins; assay type: ADME, organism-based, Canis lupus familiaris; design: dose 2 mg/kg, route intravenous; conditions: in vivo
[13] = system: Human immunodeficiency virus 1; experiment: Antiviral activity against wild type HIV1 3B infected in human MT2 cells assessed as fold resistance after 11 months incubation; assay type: functional
[14] = Oral bioavailability in Beagle dog at 10 mg/kg in presence of 10 mg/kg COBI; assay type: ADME, organism-based, Canis lupus familiaris; conditions: in vivo
[15] = (§1) Intrinsic clearance in human liver microsomes in presence of 1 uM COBI; assay type: ADME; conditions: liver microsomes, with COBI 1 uM, read-out: CLH
[16] = Intrinsic clearance in human liver microsomes; assay type: ADME; conditions: read-out: CLH
[17] = (§2) Intrinsic clearance in human liver microsomes in presence of 1 uM RTV; assay type: ADME; conditions: liver microsomes, with RTV 1 uM, read-out: CLH
Liver microsome [18] = experiment: as §1; assay type: ADME; conditions: microsomes
Liver microsome [19] = experiment: as §2; assay type: ADME; conditions: microsomes

SMILES	EC50 [1] [nM]	CC50 at 120 h [2] [nM]	CC50 at 120 h [3] [nM]	Ki (Protease) [nM]	Ratio EC50 [5]	Ratio EC50 [9]	Ratio EC50 [10]	further results
CC(C)(C)NC(=O)[C@@H]1C[C@@H]2CCCC[C@@H]2CN1C[C@@H](O)[C@H](Cc1ccccc1)NC(=O)[C@H](CC(N)=O)NC(=O)c1ccc2ccccc2n1	13.6	32300	12400	–	–	–	–	–
CC(C)CN(C[C@@H](O)[C@H](Cc1ccccc1)NC(=O)O[C@H]1CCOC1)S(=O)(=O)c1ccc(N)cc1	24	> 100000	98400	0.345	159	16.3	–	Ratio EC50 [4]: 5.9; Ratio EC50 [6]: 0.9; Ratio EC50 [7]: 20; Ratio EC50 [8]: 0.8
CCOP(=O)(COc1ccc(C[C@H](NC(=O)O[C@H]2CO[C@H]3OCC[C@H]32)[C@H](O)CN(CC(C)C)S(=O)(=O)c2ccc(OC)cc2)cc1)OCC	3.5	> 100000	61300	0.0081	2.4	0.7	2.7	Ratio EC50 [4]: 0.9; Ratio EC50 [6]: 0.1; bioavailability [11]: 6.9%; clearance [12]: 35.5 mL/min/kg; fold change (FC) [13]: 15; bioavailability [14]: 100%; Ratio EC50 [7]: 0.6; microsomal CLint [15]: 1 µL/min/mg; microsomal CLint [16]: 9.2 µL/min/mg; Ratio EC50 [8]: 0.2; microsomal CLint [17]: 2.6 µL/min/mg
CC(C)CN(C[C@@H](O)[C@H](Cc1ccccc1)NC(=O)O[C@H]1CO[C@H]2OCC[C@H]21)S(=O)(=O)c1ccc(N)cc1	2.3	> 100000	95500	–	–	–	–	microsomal CLint [15]: 0.9 µL/min/mg; microsomal CLint [16]: 30.9 µL/min/mg; microsomal CLint [17]: 1.6 µL/min/mg
COc1ccc(S(=O)(=O)N(CC(C)C)C[C@@H](O)[C@H](Cc2ccc(O)cc2)NC(=O)O[C@H]2CO[C@H]3OCC[C@H]32)cc1	6.9	–	–	0.0053	5.1	0.8	–	–
COc1ccc(C[C@H](NC(=O)O[C@H]2CO[C@H]3OCC[C@H]32)[C@H](O)CN(CC(C)C)S(=O)(=O)c2ccc(OC)cc2)cc1	0.06	–	–	–	157	17	–	–
COC(=O)c1ccc(C[C@H](NC(=O)O[C@H]2CO[C@H]3OCC[C@H]32)[C@H](O)CN(CC(C)C)S(=O)(=O)c2ccc(OC)cc2)cc1	0.3	–	–	0.0054	11	1.2	–	–
CCOP(=O)(OCC)c1ccc(C[C@H](NC(=O)O[C@H]2CO[C@H]3OCC[C@H]32)[C@H](O)CN(CC(C)C)S(=O)(=O)c2ccc(OC)cc2)cc1	7.5	–	–	0.0012	4.5	0.5	–	–
CCOP(=O)(Cc1ccc(C[C@H](NC(=O)O[C@H]2CO[C@H]3OCC[C@H]32)[C@H](O)CN(CC(C)C)S(=O)(=O)c2ccc(OC)cc2)cc1)OCC	5.9	–	–	0.0084	36	5.8	2.4	–
CCOP(=O)(CCc1ccc(C[C@H](NC(=O)O[C@H]2CO[C@H]3OCC[C@H]32)[C@H](O)CN(CC(C)C)S(=O)(=O)c2ccc(OC)cc2)cc1)OCC	2.1	–	–	0.0091	3.1	0.4	2.6	–
COc1ccc(S(=O)(=O)N(CC(C)C)C[C@@H](O)[C@H](Cc2ccc(OCP(=O)(OC)OC)cc2)NC(=O)O[C@H]2CO[C@H]3OCC[C@H]32)cc1	18.8	–	–	0.0181	–	0.3	–	–
COc1ccc(S(=O)(=O)N(CC(C)C)C[C@@H](O)[C@H](Cc2ccc(OCP(=O)(OC(C)C)OC(C)C)cc2)NC(=O)O[C@H]2CO[C@H]3OCC[C@H]32)cc1	1.9	–	–	0.0057	6	1.3	3.6	–
COc1ccc(S(=O)(=O)N(CC(C)C)C[C@@H](O)[C@H](Cc2ccccc2)NC(=O)O[C@H]2CO[C@H]3OCC[C@H]32)cc1	0.35	–	–	–	–	–	–	–
CC(C)(C)NC(=O)[C@@H]1CN(Cc2cccnc2)CCN1C[C@@H](O)C[C@@H](Cc1ccccc1)C(=O)N[C@H]1c2ccccc2C[C@H]1O	12.4	> 100000	74700	–	–	–	–	–
Cc1c(O)cccc1C(=O)N[C@@H](CSc1ccccc1)[C@H](O)CN1C[C@H]2CCCC[C@H]2C[C@H]1C(=O)NC(C)(C)C	4.9	19100	7400	0.732	16.5	>92	19.2	Ratio EC50 [4]: 26; Ratio EC50 [6]: 25.4; Ratio EC50 [7]: 30.6; Ratio EC50 [8]: >68
COC(=O)N[C@H](C(=O)N[C@@H](Cc1ccccc1)[C@@H](O)CN(Cc1ccc(-c2ccccn2)cc1)NC(=O)[C@@H](NC(=O)OC)C(C)(C)C)C(C)(C)C [ATAZANAVIR]	2.2	79800	26500	0.0479	1.9	>100	2.4	Ratio EC50 [4]: 43.9; Ratio EC50 [6]: 127; Ratio EC50 [7]: 102; CLH (Liver microsome [18]): 0.9 µL/min/mg; microsomal CLint [16]: 23 µL/min/mg; Ratio EC50 [8]: 141; CLH (Liver microsome [19]): 1.4 µL/min/mg
Cc1cccc(C)c1OCC(=O)N[C@@H](Cc1ccccc1)[C@@H](O)C[C@H](Cc1ccccc1)NC(=O)[C@H](C(C)C)N1CCCNC1=O [LOPINAVIR]	5.6	67900	27800	–	–	–	–	microsomal CLint [15]: 2.7 µL/min/mg; microsomal CLint [16]: 544 µL/min/mg; microsomal CLint [17]: 1.6 µL/min/mg
CC(C)c1nc(CN(C)C(=O)N[C@H](C(=O)N[C@@H](Cc2ccccc2)C[C@H](O)[C@H](Cc2ccccc2)NC(=O)OCc2cncs2)C(C)C)cs1 [RITONAVIR]	32.2	–	–	–	–	–	–	–
